Experimental findings from ChEMBL document CHEMBL1128587, “Structure-based inhibitors of influenza virus sialidase. A benzoic acid lead with novel interaction” (J Med Chem, 1995) are described below.

pIC50: −log10 of the molar value.

A word on the pIC50: it is the IC50 on a negative log10 scale, so that one unit is a factor of ten. The low end stands for a large IC50, the high end for a small IC50.

What all share (format): functional, organism-based
Assay [1] has as its system Influenza A virus. In words: The compound was tested in vitro for the inhibitory concentration against influenza N2 sialidase from whole virus by fetuin assay.
Assay [2] deals with Influenza B virus. In words: The compound was tested in vitro for the inhibitory concentration against influenza B/Mem/89 sialidase from whole virus by fetuin assay.
Assay [3] deals with Influenza A virus. In words: The compound was tested in vitro for the inhibitory concentration against influenza N2 sialidase from whole virus by MUN assay.
Assay [4] has as its system Influenza B virus. In words: The compound was tested in vitro for the inhibitory concentration against influenza B/Mem/89 sialidase from whole virus by MUN assay.

As to `CC(=O)Nc1ccc(C(=O)O)cc1OC(C)=O`, the pIC50 in the assay with Influenza A virus [1] was 2.00; in the assay on Influenza B virus [2] it was 2.30; with Influenza A virus [3] it was less than 2.00; with Influenza B virus [4], less than 2.00.

With `CC(=O)Nc1c(N)cc(C(=O)O)cc1O`, the pIC50 was less than 2.00 in the assay on Influenza A virus [1], less than 2.00 in the assay on Influenza B virus [2], less than 2.00 in the assay on Influenza A virus [3] and 2.00 with Influenza B virus [4].

As to `CC(=O)Nc1ccc(C(=O)O)cc1N`, the pIC50 was less than 2.00 in the assay on Influenza A virus [1], less than 2.00 with Influenza A virus [3] and less than 1.70 with Influenza B virus [4].

`CC(=O)NC1C(O)CC(O)(C(=O)O)OC1[C@H](O)[C@H](O)CO` (stereo partly drawn) showed a pIC50 in the assay on Influenza B virus [4] of less than 2.00.

As to `CC(=O)Nc1ccc(C(=O)O)cc1NC(=O)CCCN`, the pIC50 with Influenza A virus [1], in the assay on Influenza B virus [2], with Influenza A virus [3] and in the assay with Influenza B virus [4] was less than 2.00 in each case.

In the case of `CC(=O)Nc1ccc(C(=O)O)cc1[N+](=O)[O-]`, the pIC50 in the assay with Influenza A virus [1], in the assay on Influenza B virus [2], with Influenza A virus [3] and in the assay on Influenza B virus [4] was 2.30 throughout.

Take `CC(=O)Nc1cc([N+](=O)[O-])c(C(=O)O)c([N+](=O)[O-])c1O`: the pIC50 with Influenza A virus [1] is 2.52; with Influenza B virus [2] it was 2.40; in the assay with Influenza A virus [3], 3.00; in the assay on Influenza B virus [4], 3.00.

On to `CC(=O)Nc1c(OC(C)=O)cc(C(=O)O)cc1[N+](=O)[O-]`, for which the pIC50 in the assay with Influenza A virus [1] is 2.52; in the assay on Influenza B virus [2], 2.40; in the assay with Influenza A virus [3] it was 2.30; in the assay on Influenza B virus [4] it was 2.70.

Take `CC(=O)Nc1c(O)cc(C(=O)O)cc1[N+](=O)[O-]`: the pIC50 is 3.00 with Influenza A virus [1], 3.00 in the assay with Influenza B virus [2], 3.12 in the assay with Influenza A virus [3] and 3.12 with Influenza B virus [4].

Take `CC(=O)Nc1ccc(C(=O)O)cc1NC(=O)CO`: the negative-log IC50 (pIC50) in the assay with Influenza A virus [1] was less than 2.00; with Influenza B virus [2], 2.00; in the assay with Influenza A virus [3], 2.40; in the assay with Influenza B virus [4], 2.52.

On to `CC(=O)Nc1ccc(C(=O)O)cc1NC(=O)C(O)CO` (stereo not drawn), for which the pIC50 was 2.40 with Influenza A virus [1], less than 2.00 in the assay with Influenza B virus [2], 2.30 in the assay on Influenza A virus [3] and 2.10 in the assay with Influenza B virus [4].

For the compound `CC(=O)Nc1ccc(C(=O)O)cc1O` [3-HYDROXY-4-ACETYLAMINOBENZOIC ACID], the pIC50 was 2.00 with Influenza A virus [1], 2.00 in the assay on Influenza B virus [2], less than 2.00 with Influenza A virus [3] and less than 2.00 with Influenza B virus [4].

For the compound `CC(=O)N[C@H]1[C@H]([C@H](O)[C@H](O)CO)OC(C(=O)O)=C[C@@H]1O` [NEU5AC2EN], the pIC50 in the assay on Influenza A virus [1], in the assay with Influenza B virus [2], in the assay on Influenza A virus [3] and in the assay on Influenza B virus [4] was 4.82 in each case.
